Ends that are not written are not given here.
Test system: β-cell mass
Experiment: INGAP peptide administration to hamsters: extra-islet acinar-associated and total β-cell mass
Assay type: in vivo
Details: 250 μg twice daily intra-peritoneal, female Syrian hamsters
Method: Female Syrian hamsters, 8 weeks of age, were randomly allocated to receive daily intra-peritoneal injections of INGAP peptide (Ile-Gly-Leu-His-Asp-Pro-Ser-His-Gly-Thr-Leu-Pro-Asn-Gly-Ser) (250 μg twice daily) or an equivalent volume of saline for either 10 (saline n=10, INGAP n=15) or 30 (S n=10, I n=15) days. At the end of the study period, animals were sacrificed by bleeding, and the pancreata excised through a midline laparotomy incision, for morphologic and morphometric analysis.
Samples were embedded in paraffin wax and 4 μm-thick sections were cut. The sections were processed for routine histology and immunostained for insulin, CK19 (1:750, 1:100 respective antibody dilution, Dako Corp., Santa Barbara, Calif.), glucagon, somatostatin and pancreatic polypeptide (1:750 antibody dilution, Biogenex, San Ramon, Calif., USA), using the AB complex method (streptavidin-biotin horseradish peroxidase complex, Dako Corp., Santa Barbara, Calif.), as described previously (22). A rabbit PDX-1 antibody directed against the NH2-terminus of the frog homologue of the protein encoded by the pdx-1 gene was used as the primary antibody (1:750 dilution; a gift from C. Wright, Vanderbilt University). Slides were countered stained with Harris hematoxylin (Sigma, St. Louis, Mo.).
Comparison between groups was done using 1-way ANOVA, 2-way ANOVA with post hoc one-tail t-test or X^2 analysis where appropriate. Data are presented as mean±SEM. Significance was accepted at the 5% level.
To determine β-cell mass (mg/pancreas), each gland was sectioned along its longitudinal axis to avoid any sampling bias due to regional variation in islet distribution and cell composition. Islet cross-sectional areas were traced manually with the aid of an Olympus BX60 microscope connected by video camera to a computer equipped with Image-pro Plus software version 4.0 (23). The total β-cell mass was calculated by a stereological equation, as described previously (22).
β-cell neogenesis and acinar-associated β-cell mass was analysed as described previously […]. Briefly, extra-islet acinar-associated β-cells/cell clusters were defined as insulin positive cells/cell clusters not associated with any other endocrine cells (α, δ, PP), completely surrounded by acinar tissue and a minimum of 100 μm from ductular tissue. The percent β-cell area being extra-islet acinar-associated was determined and multiplied by the weight of the excised organ to determine extra-islet acinar-associated β-cell mass.

Sequence: IGLHDPSHGTLPNGS [INGAP peptide]
- increase in extra-islet acinar-associated β-cell mass versus saline infused controls (10 days of treatment): 180%
- increase in total β-cell mass (10 days of treatment): 44%
- increase in total β-cell mass (30 days of treatment): 31%
- increase in extra-islet acinar-associated β-cell mass versus saline infused controls (30 days of treatment, p<0.05): 200%
